In PMC10945739, “Exploring Cassia mimosoïdes as a promising natural source of steroids with potent anti-cancer, urease inhibition, and antimicrobial properties” (RSC Advances, 2024):
Converted amounts (≈) assume the structure as drawn. Read-outs that look alike come from different tables or passages of the source.

How the values were obtained:
Alternaria alternata = assay: Antifungal bioassay, poisoned medium technique; assay type: cell-based; conditions: 168 h, read-out: MIC values against Alternaria alternata
Description: (§1) Anti-microbial assays of the isolated componds were performed against the selected strain of fungi i.e., Alternaria alternata, Aspergillus fumigatus, Aspergillus niger, and Penicillium citrii.
(§2) Alternaria alternata, Aspergillus fumigatus, Aspergillus niger, and Penicillium citrii strains were obtained from the Biotechnology lab at COMSATS University Islamabad. The antifungal activity of isolated compounds was assessed using poisoned medium technique. Two percent malt extract agar medium was generated by autoclaving at 121 °C for 30 minutes. Weighed volumes of the compounds were dissolved in […] of sterilized distilled water and put to flasks containing 59.5 mL of malt extract agar medium while they were still molten to obtain final concentrations of 100, 300, 500, 700, 900, and 1000 ppm. The control received the same amount of distilled water. Each sterile Petri plate with a diameter of 90 mm was filled with 20 mL of each medium and allowed to solidify. 5 mm diameter mycelial discs were produced from the tips of 5–7 day-old cultures of the four test fungus species and put in the center of each Petri dish using a sterile cork borer. Every treatment was duplicated three times. Plates were cultured in an incubator at 25 ± 2 °C for seven days. To calculate the rate of fungal growth, the three diameters of each colony were measured at right angles and averaged. Table 2 MIC values (μM) of the isolated compounds against Alternaria alternata, Aspergillus fumigatus, Aspergillus niger, and Penicillium citrii strains.[19]

Aspergillus niger = assay: Antifungal bioassay, poisoned medium technique; assay type: cell-based; conditions: 168 h, read-out: MIC values against Aspergillus niger
Description: as §1, §2

Penicillium citrii = assay: Antifungal bioassay, poisoned medium technique; assay type: cell-based; conditions: 168 h, read-out: MIC values against Penicillium citrii
Description: as §1, §2

Aspergillus fumigatus = assay: Antifungal bioassay, poisoned medium technique; assay type: cell-based; conditions: 168 h, read-out: MIC values against Aspergillus fumigatus
Description: as §1, §2

H.pylori = assay: Antibacterial activity, agar well diffusion method; assay type: cell-based, Helicobacter pylori; conditions: Helicobacter pylori; abstract; read-out: MIC against H. pylori
Excerpt: Antibacterial activity of the isolated and synthesized compounds was perform using agar well method. Three bacterial strains selected for this experiment were H.pylori, B. subtilis and S. aureus, for all of three strains compounds show good to mederate inhibition. […] The presence of H. pylori in the stomach has been associated with a range of gastric disorders, including peptic ulcers, gastritis, and an increased risk of gastric cancer. The bacterium's ability to manipulate the gastric environment through urease activity underscores its role in the development and progression of these conditions. Different studies have targeted H. pylori and its urease activity as potential avenues for therapeutic intervention and disease management (Fig. 4).
The agar well diffusion method evaluated every compound separately. Each sterile Petri plate was aseptically filled with 20 mL of the agar medium, which was then […]. The media then solidified at room temperature. Various bacterial strains were put to agar plates using a sterile cotton swab. A 6 mm-diameter well was drilled using a sterilized cork borer. Each isolated compound was dissolved in 1 mL of a 20% DMSO solution. In a well with a diameter of 6 mm, […] of the standard drug and isolated compounds were added. […] The zone of inhibition was graphed and quantified in millimeters.[20]

S. aureus = assay: Antibacterial activity, agar well diffusion method; assay type: cell-based, Staphylococcus aureus; conditions: Staphylococcus aureus; abstract; read-out: MIC against S. aur
Description: The agar well diffusion method evaluated every compound separately. Each sterile Petri plate was aseptically filled with 20 mL of the agar medium, which was then autoclaved at 120 °C to destroy any germs. The media then solidified at room temperature. Various bacterial strains were put to agar plates using a sterile cotton swab. A 6 mm-diameter well was drilled using a sterilized cork borer. […] In a well with a diameter of 6 mm, 20 mL of the standard drug and isolated compounds were added. At 37 °C, the test plates were incubated for 24 hours. The test plates were incubated at 37 °C for 24 hours. The standard disc containing 50 mg of ciprofloxacin served as a positive control for antibacterial activity, and DMSO served as a negative control.

Jack bean urease = Jack bean urease (Canavalia ensiformis, UniProt P07374); assay: biochemical; assay type: biochemical; conditions: for inhibition at 500 µM: pH 6.8, read-out: % Inhibition of urease
Sequence of Jack bean urease (P07374 whole entry, looked up): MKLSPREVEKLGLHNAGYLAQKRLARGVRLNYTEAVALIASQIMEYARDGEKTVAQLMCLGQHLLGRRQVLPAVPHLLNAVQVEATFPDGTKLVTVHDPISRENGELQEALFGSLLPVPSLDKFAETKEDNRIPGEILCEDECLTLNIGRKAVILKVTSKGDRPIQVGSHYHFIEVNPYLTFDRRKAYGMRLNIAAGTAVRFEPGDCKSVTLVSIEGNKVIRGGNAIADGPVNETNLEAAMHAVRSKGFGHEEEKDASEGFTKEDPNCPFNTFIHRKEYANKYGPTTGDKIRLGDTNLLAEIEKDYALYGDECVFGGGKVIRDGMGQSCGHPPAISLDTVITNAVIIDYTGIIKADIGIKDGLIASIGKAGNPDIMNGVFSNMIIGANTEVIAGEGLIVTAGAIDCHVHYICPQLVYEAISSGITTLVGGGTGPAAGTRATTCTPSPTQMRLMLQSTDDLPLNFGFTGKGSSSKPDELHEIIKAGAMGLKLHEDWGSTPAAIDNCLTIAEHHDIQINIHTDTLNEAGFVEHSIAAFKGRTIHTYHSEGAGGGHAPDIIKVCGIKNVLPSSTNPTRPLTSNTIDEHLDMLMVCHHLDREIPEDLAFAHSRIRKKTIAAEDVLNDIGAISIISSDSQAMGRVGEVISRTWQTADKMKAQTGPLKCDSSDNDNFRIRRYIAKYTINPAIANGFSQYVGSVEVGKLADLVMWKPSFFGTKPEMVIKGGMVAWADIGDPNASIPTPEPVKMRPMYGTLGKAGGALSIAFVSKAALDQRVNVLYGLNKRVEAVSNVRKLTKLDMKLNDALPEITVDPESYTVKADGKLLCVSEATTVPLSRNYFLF
Description: The inhibition potential of the isolated compounds against urease was investigated using a SpectraMax M2 reader using 96-well microplates.
The kinetic assay involved preparing varying concentrations of both the test compound and the substrate (urea), spanning 0 μM, 5 μM, 10 μM, 15 μM, and 20 μM. The resulting data was utilized to construct a Lineweaver–Burk plot.
In 96-well plates were incubated at 37 °C for 15 min, reaction mixtures consisting of 25 μL of test compounds (each 0.5 mM), 25 μL of enzyme solution (Jack bean urease) and 55 μL of buffers containing 20.79 mM urea. The indophenol method described by Weatherburn[21] was used to determine urease inhibitor activity by measuring ammonia production. Briefly, to each well were added 70 μL of alkaline reagent (0.5% w/v NaOH and 0.1% active chloride, NaOCl) and 45 μL of phenolic reagent (1% w/v phenol and 0.005% w/v sodium nitroprusside). The microplate reader (Molecular Devices, USA) was used to measure the increase in absorbance at 650 nm after 50 min. A final volume of 245 μL was required to perform all reactions in a triplicate. The results (absorbance change per minute) were processed using SoftMax Pro software (Molecular Devices, USA). All assays were performed at pH 6.8. Inhibition percentages were calculated from the formula% Inhibition = 100 − (Abs(sample)/Abs(control)) × 100where “A” is the absorbance of the “test well” as well as the “control”. Thiourea was used as a standard.

[1] = test system: human HepG2 hepatic cancer cells; assay: MTT cell viability assay; assay type: cell-based; conditions: Homo sapiens; for viability at 200 µg: HepG2, 48 h; for IC50: HepG2, calculated using Graph Pad Prism software, read-out: IC50 against HepG2
Description: The human liver cells were cultivated in Dulbecco's modified Eagle medium (DMEM) in which 100 U mL^−1 penicillin, 10% fetal bovine and […] streptomycin were added and kept at 37 °C in a […] carbon dioxide induced humidified environment. The human liver cells prepared as per above procedure were then treated with synthesized compounds diluted to 0.05% DMSO concentration.
Using MTT assay, the % viability of cancer cells 36 was evaluated. According to the standard procedure, HepG2 cells were treated with various dosages of synthesized compounds for 48 hours each. The cells were then incubated for 4 hours at 37 °C with 10μ MTT reagent (5 mg mL^−1). Next, in 150 μL DMSO was added to dissolve formazan crystals. The λmax was recorded at 409 nm in a microplate reader (thermos scientific).

[2] = poisoned medium, 25 ± 2 °C, seven days
[3] = HepG2, MTT, 48 hours, at 200 μg

SMILES | IC50 (Jack bean urease) | inhibition at 500 µM (Jack bean urease) | viability at 200 µg [1, 3] | other results
O=c1cc(-c2ccc(O)cc2)oc2c([C@@H]3O[C@H](CO)[C@@H](O)[C@H](O)[C@H]3O)c(O)cc(O)c12 [Apigenin-8-C-β-D-glucopyranoside] | – | – | – | MIC (Alternaria alternata): 0.025 ± 0.007 µM (≈ 10.8 ng/mL); MIC (Aspergillus niger): 0.015 ± 0.001 µM (≈ 6.49 ng/mL); MIC (Penicillium citrii): 0.01 ± 0.006 µM (≈ 4.32 ng/mL); MIC (Aspergillus fumigatus): 0.01 ± 0.006 µM (≈ 4.32 ng/mL)
Cc1cc(O)c2c(c1)C(=O)c1cccc(O)c1C2=O [Chrysophanol] | – | – | – | MIC (Alternaria alternata; [2]): 0.012 ± 0.003 µM (≈ 3.05 ng/mL); MIC (Aspergillus niger; [2]): 0.03 ± 0.002 µM (≈ 7.63 ng/mL); MIC (Penicillium citrii; [2]): 0.05 ± 0.001 µM (≈ 12.7 ng/mL); MIC (Aspergillus fumigatus; [2]): 0.06 ± 0.001 µM (≈ 15.3 ng/mL)
C=C(CCC(=CC)C(C)C)C1CCC2C3=CCC4C(C)C(O)CCC4(C)C3CCC12C (stereo not drawn) [Compound 1, 21-methylene-24-ethylidene lophenol] | 1.02 ± 0.35 µM | 82.3% | – | MIC (H.pylori): 0.28 µg/mL (≈ 0.659 µM); MIC (S. aureus): 0.12 µg/mL (≈ 0.283 µM); mode of inhibition, Lineweaver–Burk plot (Jack bean urease; urea and compound 0–20 μM): competitive
O=c1cc(-c2ccc(O)c(O)c2)oc2cc(O)cc(O)c12 [Compound 2, Luteolin] | 1.3 ± 0.28 µM | 82% | 82.5 ± 4.31% | MIC (Alternaria alternata; [2]): 0.043 ± 0.002 µM (≈ 12.3 ng/mL); MIC (Aspergillus niger; [2]): 0.021 ± 0.001 µM (≈ 6.01 ng/mL); MIC (Penicillium citrii; [2]): 0.05 ± 0.002 µM (≈ 14.3 ng/mL); MIC (Aspergillus fumigatus; [2]): 0.01 ± 0.004 µM (≈ 2.86 ng/mL)
O=c1cc(-c2ccc(O)c(O)c2)oc2cc(O)ccc12 [Compound 3, 3′,4′,7-Trihydroxyflavone] | – | – | – | MIC (Alternaria alternata; [2]): 0.056 ± 0.001 µM (≈ 15.1 ng/mL); MIC (Aspergillus niger; [2]): 0.032 ± 0.005 µM (≈ 8.65 ng/mL); MIC (Penicillium citrii; [2]): 0.016 ± 0.01 µM (≈ 4.32 ng/mL); MIC (Aspergillus fumigatus; [2]): 0.013 ± 0.003 µM (≈ 3.51 ng/mL)
COc1cc(O)cc2oc(-c3ccc(O)c(O)c3)cc(=O)c12 [Compound 4, Luteolin-5-methyl ether] | 3.87 ± 0.24 µM | 82.7% | 90.5 ± 2.15% | –
O=c1cc(-c2ccc(O)cc2)oc2c([C@@H]3O[C@H](CO)[C@@H](O)[C@H](O)[C@H]3O)c(O)cc(O)c12 [Compound 5, Apigenin-8-C-β-D-glucopyranoside] | 4.73 ± 0.22 µM | 77.5% | – | viability at 200 µg [1]: 94.7 ± 7.4%
O=c1cc(-c2ccc(O)c(O)c2)oc2c([C@@H]3O[C@H](CO)[C@@H](O)[C@H](O)[C@H]3O)c(O)cc(O)c12 [Compound 6, Luteolin-8-C-β-D-glucopyranoside] | 5.03 ± 0.12 µM | 71.5% | 89.2 ± 2.5% | –
CC[C@H](CC[C@@H](C)[C@H]1CC[C@H]2[C@@H]3CC(=O)C4=CC(=O)CC[C@]4(C)[C@H]3CC[C@]12C)C(C)C [Compound 9, Stigmast-4-en-3,6-dione] | – | 13.4% | – | IC50 [1]: 7.8 µM
CC[C@H](CC[C@@H](C)[C@H]1CC[C@H]2[C@@H]3C[C@H](O)C4=C[C@@H](O)CC[C@]4(C)[C@H]3CC[C@]12C)C(C)C [Compound 10, Stigmast-4-en-3β,6α-diol] | 6.68 ± 0.11 µM | 76.6% | 14.5 ± 0.68% | IC50 [1]: 7.8 µM
Cc1cc(O)c2c(c1)C(=O)c1cc(O)cc(O)c1C2=O [Compound 11, Emodin] | 5.2 ± 0.14 µM | 72.9% | 83.89 ± 0.73% | –
Cc1cc(O)c2c(c1)C(=O)c1cccc(O)c1C2=O [Compound 12, Chrysophanol] | 5.92 ± 0.25 µM | 78.2% | 59.3 ± 2.2% | –
